{"source": "patent US20150010509A1", "about": "(priority 2012, published 2015)", "origin": "cited, not measured here", "key": {"[1]": {"tested_on": "MDA-MB-231 human breast cancer cells", "details": "cited from earlier work"}, "[2]": {"tested_on": "EMT6 mouse mammary tumor cells", "details": "CaPterin suspension 7 mg/kg/day oral, Balb/c mice, cited from earlier work"}, "[3]": {"tested_on": "MDA-MB-231 human breast cancer cells", "details": "SCID mice, cited from earlier work"}, "[4]": {"tested_on": "human peripheral blood mononuclear cells (PBMC)", "details": "at the concentrations tested; cited from earlier work"}, "[5]": {"tested_on": "mammary gland adenocarcinomas", "details": "CaPterin suspension 7 mg/kg/day, oral gavage, seven days; C3H/HeN-MTV+ female mice; cited from earlier work"}, "[6]": {"molecular_target": "T1, IDO (indoleamine 2,3-dioxygenase) (Homo sapiens, UniProt P14902)", "T1 construct": "freshly isolated human peripheral blood mononuclear cells (PBMC); endogenous in cells; host or cells: freshly isolated human PBMC stimulated with PHA or Con A", "T1 sequence (P14902 whole entry)": "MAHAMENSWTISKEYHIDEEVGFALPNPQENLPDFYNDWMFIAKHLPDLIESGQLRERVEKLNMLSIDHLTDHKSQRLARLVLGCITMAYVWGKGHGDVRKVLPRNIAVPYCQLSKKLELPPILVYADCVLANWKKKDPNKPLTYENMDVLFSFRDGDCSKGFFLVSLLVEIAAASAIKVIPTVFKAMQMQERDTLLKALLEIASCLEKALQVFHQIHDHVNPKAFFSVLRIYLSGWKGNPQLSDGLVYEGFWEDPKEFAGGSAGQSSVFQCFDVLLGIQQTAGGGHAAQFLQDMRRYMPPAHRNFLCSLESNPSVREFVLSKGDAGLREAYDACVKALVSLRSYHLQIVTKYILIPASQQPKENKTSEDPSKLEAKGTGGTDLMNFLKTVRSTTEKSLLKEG", "details": "cited from earlier work"}, "[7]": {"tested_on": "human peripheral blood mononuclear cells (PBMC)", "details": "cited from earlier work"}, "[8]": {"tested_on": "plasma cytokines, kynurenine, tryptophan", "details": "cited from earlier work"}, "[9]": {"tested_on": "serum kyn/trp, MCP-1, GM-CSF", "details": "DCP per os 14 days; regression p=0.001; cited from earlier work"}, "[10]": {"details": "cited from earlier work"}, "M. bovis BCG": {"tested_on": "M. bovis BCG", "details": "cited from earlier work"}, "[11]": {"tested_on": "MIP-1β, inducible nitric oxide synthase 2, IDO gene expression", "details": "infected human monocytes; cited from earlier work"}, "hepatitis B virus (HBV)": {"tested_on": "hepatitis B virus (HBV)", "details": "cited from earlier work"}, "[12]": {"details": "Unstimulated PBMC + 200 μg/ml CaPterin"}, "[13]": {"details": "stepwise regression on CaPterin dose, p=0.047"}}, "note": "“Also recorded” adds a separate entry of the source. Read-outs that look alike come from different tables or passages of the source."}
{"compound": "Nc1nc2c3c(ncc[n+]3[Ca][O]2)n1", "values": [{"measurement": "T/C", "setting": "[1]; CaPterin 21 mg/(kg day), after 60 days of treatment, 5×10^6 cells, nude mice", "value": 37, "unit": "%"}, {"measurement": "T/C after 14 days", "setting": "[1]; CaPterin suspension 7 mg/kg/day, oral gavage once daily 14 days, 5×10^6 cells, nude mice", "value": 41, "unit": "%"}, {"measurement": "treatment toxicity assessed by reductions in body weight", "setting": "[1]; CaPterin suspension 7 mg/kg/day, oral gavage, 14 days, nude mice", "value": "No treatment toxicity"}, {"measurement": "toxicity (appreciable weight loss ≧10%)", "setting": "[1]; mega-dosed by oral gavage 100 mg/(kg day) for up to 31 days", "value": "no observed toxicity"}, {"measurement": "animal toxicity determined by decreased body weight", "setting": "[2]; 15 days", "value": "no measurable animal toxicity"}, {"measurement": "effect on tumor growth", "setting": "[2]; once daily 15 days", "value": "no significant effect on tumor growth"}, {"measurement": "antitumor efficacy", "setting": "[3]; 13, 20 and 26 mg/kg CaPterin, oral gavage Monday through Friday for 75 days", "value": "no antitumor efficacy"}, {"measurement": "toxicity", "setting": "[3]; CaPterin suspension over 75 days", "value": "no measurable toxicity"}, {"measurement": "toxicity by exclusion method", "setting": "[4]", "value": "no toxicity"}, {"measurement": "ratio of Test tumor volumes to Control tumor volumes (T/C) at Day 7", "setting": "[5]", "value": 10, "unit": "%"}, {"measurement": "Kynurenine decrease", "setting": "[6]; PBMC + Con A + CaPterin", "value": "≦100-fold"}, {"measurement": "Tryptophan", "setting": "[6]; PBMC + Con A + CaPterin", "value": 17.7, "unit": "µM"}, {"measurement": "Kynurenine decrease", "setting": "[6]; PBMC + PHA + CaPterin", "value": "≦100-fold"}, {"measurement": "Tryptophan", "setting": "[6]; PBMC + PHA + CaPterin", "value": 17.7, "unit": "µM"}, {"measurement": "Kynurenine", "setting": "[6]; [12]", "value": "did not significantly affect"}, {"measurement": "Kynurenine/Tryptophan", "setting": "[6]; [12]", "value": "lower"}, {"measurement": "Tryptophan", "setting": "[6]; [12]", "value": "did not significantly affect"}, {"measurement": "IDO activity / stimulation-induced tryptophan degradation", "setting": "[6]; mitogen-stimulated PBMC", "value": "suppressed stimulation-induced tryptophan degradation in a dose-dependent manner"}, {"measurement": "neopterin excretion", "setting": "[7]; PBMC", "value": "suppressed"}, {"measurement": "Neopterin", "setting": "[7]; [12]", "value": "did not influence this level"}, {"measurement": "plasma IFN-γ", "setting": "[8]; [13]", "value": "decreases"}, {"measurement": "plasma IL-6", "setting": "[8]; [13]", "value": "decreases"}, {"measurement": "plasma IL-10", "setting": "[8]; [13]", "value": "increases"}, {"measurement": "plasma kynurenine", "setting": "[8]; stepwise regression on CaPterin dose, p=0.047, confounded by tumor shrinkage", "value": "increases"}]}
{"compound": "Nc1nc2nccnc2c(=O)[nH]1.[Ca]", "note": "[(1:2 mol/mol) calcium pterin, calcium pterin]", "values": [{"measurement": "T/C", "setting": "[1]; (1:2 mol/mol) calcium pterin 25 mg/(kg day), 10×10^6 cells, 70-98 days of treatment", "value": 25, "unit": "%"}]}
{"compound": "O.O.[Ca+2].[Cl-].[Cl-]", "note": "[Calcium chloride dihydrate, calcium chloride dihydrate]", "values": [{"measurement": "T/C", "setting": "[1]; calcium chloride dihydrate 4.2 mg/(kg day), 10×10^6 cells, 70-98 days of treatment", "value": 25, "unit": "%"}]}
{"compound": "Nc1nc([O-])c2nccnc2n1.Nc1nc([O-])c2nccnc2n1.[Ca+2]", "note": "[DCP, dipterinyl calcium pentahydrate]", "values": [{"measurement": "T/C", "setting": "[1]; DCP 23 mg/(kg d), 10×10^6 cells, 70-98 days of treatment", "value": 25, "unit": "%"}, {"measurement": "T/C", "setting": "[1]; DCP 69 mg/(kg d), 10×10^6 cells, 70-98 days of treatment", "value": 50, "unit": "%"}, {"measurement": "IDO activity, serum kyn/trp", "setting": "[9]", "value": "decreased"}, {"measurement": "chemokine MCP-1", "setting": "[9]", "value": "reduced"}, {"measurement": "serum GM-CSF", "setting": "[9]", "value": "increased"}, {"measurement": "reduction of OGTT/AUC (area under OGTT curve)", "setting": "[10]; 7 mg/(kg d) DCP orally in 0.4% carboxymethylcellulose, 21 days, female DIO C57BL/6J mice, p<0.05", "value": 50, "unit": "%"}, {"measurement": "OGTT diabetic state", "setting": "[10]; optimum dose 7 mg/(kg d) DCP, female DIO mice", "value": "significantly improved"}, {"measurement": "viability of intracellular M. bovis BCG", "setting": "M. bovis BCG; DCP treatment of infected human monocytes", "value": "significant reduction"}, {"measurement": "viability of extracellular M. bovis BCG", "setting": "M. bovis BCG; DCP treatment", "value": "not extracellular"}, {"measurement": "C-C chemokine MIP-1β", "setting": "[11]", "value": "induction"}, {"measurement": "IDO gene expression", "setting": "[11]", "value": "suppressed"}, {"measurement": "inducible nitric oxide synthase 2", "setting": "[11]", "value": "induction"}, {"measurement": "inhibition of liver HBV DNA", "setting": "hepatitis B virus (HBV); DCP 23 mg/(kg d) per os, 14 days", "value": 83, "unit": "%"}, {"measurement": "liver HBV DNA measured by PCR", "setting": "hepatitis B virus (HBV); DCP per os once daily 14 days, 2.3 to 23 mg/(kg d), female HBV mice", "value": "significant dose-response reduction; also recorded: decreased"}, {"measurement": "tumor growth relation to plasma cytokines (DCP/APCP regression)", "setting": "[8]; DCP treated mice, regression p=0.003", "value": "decreases with IL-12 and IL-4, and increases with IL-6"}]}
{"compound": "CC(=O)O.CNC(=N)NCCC[C@H](N)C(=O)O", "note": "[L-NMMA monoacetate]", "values": [{"measurement": "effect on DCP inhibition of intracellular mycobacterial growth", "setting": "M. bovis BCG; added to DCP-treated infected human monocytes", "value": "reversed the inhibitory effects of DCP on intracellular mycobacterial growth"}]}
{"compound": "Nc1nc2nccnc2c(=O)[nH]1", "note": "[Pterin, pterin]", "values": [{"measurement": "antitumor activity", "setting": "[1]; pterin 21 mg/(kg day), nude mice", "value": "no antitumor activity"}]}
{"compound": "CC(C)(C)C(=O)OCOP(=O)(COCCn1cnc2c(N)ncnc21)OCOC(=O)C(C)(C)C", "note": "[adefovir dipivoxil]", "values": [{"measurement": "inhibition of liver HBV DNA", "setting": "hepatitis B virus (HBV); ADV 10 mg/(kg day)", "value": "~83", "unit": "%"}]}
